Experiments:
U87MG cells [1] = test: In vitro Scratch Assay of cell migration; type: cell-based, human
Procedure: FIGS. 14A to 14D: Effect of NS-398 and FAT1 knockdown simultaneously on Cell Migration by In-vitro Scratch Assay. The in vitro Scratch Assay was performed at 72 hours after culturing cells as follows: At Day 0, 5,000 U87MG cells are plated per well of a 96 well plate. […] (C) Assay of cell migration by the Modified Boyden Chamber Assay under conditions of normoxia and hypoxia. (D) Quantitation of data from (C).
The Scratch Assay is performed at 72 hours after treatment. A scratch is made on the culture surface using a sterile 10 μl tip and cells were allowed to grow. Images were captured after every 3 hrs to monitor the closure of the wound in the culture surface for next 24 hrs.

[2] = tested on: colon, esophageal and pancreatic carcinoma cell lines; conditions: Tsujii 1998, Zimmermann 1999, Molina 1999; cited from earlier work
[3] = tested on: colorectal and lung carcinoma cell lines; conditions: Elder 1997, Liu 1998; cited from earlier work
COX-2 promoter = COX-2 promoter luciferase assay; type: cell-based, human; conditions: U87MG
Procedure: AP-1 and COX-2 Promoter Luciferase Assay: U87MG cells (40000 cells/well) were plated in 6-well plates in triplicate on day zero. On day 1, cells were transfected with siFAT1 and siControl. On day 2 cells were transiently transfected with 4×AP-1-luciferase reporter plasmids as described previously. Cells were transfected with 1 μg of AP-17× luciferase reporter plasmid, along with 50 ng of pRL-TK (Renilla luciferase) control plasmid using LIPOFECTAMINE2000 as the transfection reagent. After 48 hrs, the cells were lysed by 1× passive-lysis-buffer (Promega, Madison, Wis., USA) and assayed for luciferase activity as previously described. For COX-2 luciferase assay U87MG cells were transfected with siFAT1 and siControl on day 1 and after 4 hrs incubation were treated with 10 μM SR11302. On day2 cells were transiently transfected with COX-2 reporter plasmid and again treated with 10 μM SR11302. After 48 hrs, the cells were assayed for luciferase activity.

U87MG cells [4] = test: Toxicity of SR11302 to cells; type: cell-based, human; conditions: 10 μM
Procedure: FIG. 11: Dose response curve of SR11302; U87MG cells were treated with increasing concentration of SR11302 from 0.1 μM to 10 μM.

| Compound | inhibition of cell migration (U87MG cells [1]; Scratch Assay at 72 hours after treatment) | effect on migration under hypoxic versus normoxic culture (U87MG cells [1]; hypoxic conditions) | migration ability of cells (U87MG cells [1]; scratch and modified Boyden chamber assays, normoxic or hypoxic conditions (FIG. 14)) | growth of carcinoma cell lines [2] | apoptosis [3] | proliferation [3] | dose response of COX-2 luciferase activity (COX-2 promoter; 0.1 μM to 10 μM) | decrease in COX-2 luciferase activity (COX-2 promoter; vs siControl+DMSO, SR11302 10 μM, 48 hrs) [fold] | toxicity to the cells (U87MG cells [4]) |
| --- | --- | --- | --- | --- | --- | --- | --- | --- | --- |
| CS(=O)(=O)Nc1ccc([N+](=O)[O-])cc1OC1CCCCC1 [NS398] | about 70% | more pronounced | reduced | growth-inhibitory effects | induce apoptosis | inhibit proliferation |  |  |  |
| CC1=C(/C=C/C(=C/C=C/C(C)=C/C(=O)O)c2ccc(C)cc2)C(C)(C)CCC1 [SR11302] |  |  |  |  |  |  | dose dependent decrease | 5 | No toxicity |
